This is an account of results in US6933277B2, “Prevention of fetal alcohol syndrome and neuronal cell death with ADNF polypeptides” (The United States of America as represented by the …, priority 1999, dated 2005).

Data set [1] deals with model for FAS, C57B 1/6J mouse strain. The data set is described as follows: Fetal weights and fetal brain weights at E18 in mouse model for FAS. The class given is in vivo. The note with it: pretreatment 30 min prior to alcohol on E8; for fetal weights (alcohol-induced growth restriction): NAPVSIPQ 20 μg, VIP 1 μg. As to the method: (§1) C57-B16J female mice (Jackson Labs) were kept under a 12 h light, 12 h dark regimen with food and water available at all times. The mice received humane animal care in compliance with the “Guideline for Care and Use of Experimental Animals.” Six week old females (21-24 grams) were mated with C57-B 16J males for 4 h. The presence of a vaginal plug was considered day 0 pregnancy.
(§2) A published well-delineated model for FAS was followed (Webster, W. S., et al., Neurobehav Tox, 2:227-34 (1980)). Animals were injected (intraperitoneal) on E8 with […] in saline (v/v) or vehicle alone at 0.030 ml/g body weight. Pretreatment with VIP and ADNF peptides (NAPVSIPQ (SEQ ID NO:2), SALLRSIPA (SEQ ID NO:1), NAPVSIPQ (SEQ ID NO:2)+SALLRSIPA (SEQ ID NO:1)) were given 30 min prior to alcohol. Dosages of the neuropeptides were NAPVSIPQ (SEQ ID NO:2) (20 μg) and (40 μg), SALLRSIPA (SEQ ID NO:1) (20 μg), NAPVSIPQ (SEQ ID NO:2) (20 μg)+(20 μg); VIP (1 μg). A NAPVSIPQ (SEQ ID NO:2)+SALLRSIPA (SEQ ID NO:1) control group without alcohol was studied. NAPVSIPQ (SEQ ID NO:2) was diluted in 50 μl DMSO and diluted in filtered Dulbecco's phosphate buffered saline (DPBS). SAL was dissolved and diluted in filtered DPBS. VIP was dissolved in […] glacial acetic acid and diluted in HPLC water and DPBS. Since the animals receiving alcohol were incapacitated for approximately 6 h following injection, food and water were withheld from all groups for the initial 6 hours after injection, to allow accurate assessment of fetal weights.
(§3) At E18 (embryonic gestation day 18), the number of live and demised fetuses was determined. Fetal weights and fetal brain weights were obtained for each fetus in the litter. The mean fetal weights were determined for each mother and this was used for statistical analysis.
(§4) The mean litter pup and fetal brain weight was calculated, with the litter mean used for all statistical analysis. Percent demises were calculated by dividing the number of demises by the total number of fetuses (live plus demises). Statistical analysis included ANOVA for continuous variables, Mann-Whitney U for nonparametic data, Chi square for categorical variables or Fisher's exact test where appropriate [Statview 4.5 (Abacus Concepts, Inc., Berkeley, Calif.)] with p<0.05 considered significant. Results are presented as mean±standard error unless specified.
(§5) The C57B 1/6J mouse strain provided a well-characterized model for FAS. Previous work with this strain has defined the effects of dosage and embryonic timing on maternal serum alcohol levels and embryonic effects (Webster et al., Neurobehav Tox, 2:227-34 (1980)), incorporated herein by reference. Intra-peritoneal treatment allowed for defined and reproducible dosages. […] The mice were injected with 25% ethyl alcohol in saline (v/v) or vehicle alone at 0.030 ml/g maternal body weight at 0900 on E8. Pretreatment with the study peptides was given 30 minutes prior to alcohol administration. […]
In the surviving E18 fetuses, fetal and fetal brain weights were evaluated to assess the protective effects of the ADNF peptides. […]

Data set [2] shares this test system. In words: Fetal demise at E18 in mouse model for FAS (alcohol on E8, peptide pretreatment). The note with it: for percentage of fetal demises: E18, pretreatment 30 min prior to alcohol (25% ethyl alcohol i.p., 0.030 ml/g) on E8, NAPVSIPQ 20 μg, SALLRSIPA 20 μg, VIP 1 μg, combination 20 μg+20 μg; for alcohol toxicity as measured by fetal demises and weight (summary): summary of fetal demises and weights (fetal and fetal brain) at E18. The data set is classed as in vivo. The procedure:
as §1, §2, §3, §4, §5
To assess the protective effects of the ADNF peptides in the most severe form of stress, the number of fetal death was determined. […]

For data set [3] the following is noted: stated without test; cited from earlier work.
The mark [4] stands for this setting: surviving E18 fetuses, SALLRSIPA 20 μg, combination 20 μg+20 μg.

No end group written: not given here.

With “SALLRSIPA [Ser-Ala-Leu-Leu-Arg-Ser-Ile-Pro-Ala]”, in data set [1] (setting [4]), the “fetal weights (alcohol-induced growth restriction)” value (“fetal weights” below) was “did not prevent the alcohol-induced fetal weight reduction” and the “fetal brain weights (alcohol-induced fetal brain weight reduction)” value was “moderately prevented the alcohol-induced fetal brain weight reduction”. Besides, in data set [2], the “percentage of fetal demises” value is given as “unable to bring the fetal demise rate to control levels”; the “alcohol toxicity as measured by fetal demises and weight (summary)” value is listed as “moderately prevented alcohol toxicity”. Also, the “crossing of the blood brain barrier” value in data set [3] was “cross the blood brain barrier”.
As to “vasoactive intestinal peptide (HSDAVFTDNYTRLRKQMAVKKYLNSILN; ends and bridges not checked; UniProt P01282 125-152, looked up) [VIP, neuropeptide that is a regulator of early postimplantation mouse embryonic growth, reference compound]”, the “fetal weights” value in data set [1] (setting [4]) is given as “improved embryonic weights; however, the effect was intermediate”. The “percentage of fetal demises” value in data set [2] is “slightly improved the fetal demise rate”.
For the substance “NAPVSIPQ [Asn-Ala-Pro-Val-Ser-Ile-Pro-Gln]”, in data set [1] (double dosage of NAPVSIPQ (40 μg), E18), the alcohol-induced growth restriction result is reported as “moderately prevented the alcohol-induced growth restriction”. Also, the “fetal weights” value in data set [1] (setting [4]) was “moderately prevented the alcohol-induced growth restrictions”. Besides, in data set [2], the “percentage of fetal demises” value was “prevented the demises seen with alcohol”; the “alcohol toxicity as measured by fetal demises and weight (summary)” value is “moderately prevented alcohol toxicity”. For the same substance, the “crossing of the blood brain barrier” value in data set [3] is reported as “cross the blood brain barrier”.
